The source of these data is US7645759B2, “Non-peptide bradykinin antagonists and pharmaceutical compositions therefrom” (Istituto Luso Farmaco D'Italia S.p.A., priority 2004, dated 2010).

Where a name gives a salt, the structure may show the parent alone. Read-outs that look alike come from different tables or passages of the source.

The subject of one test is BK-induced bronchospasm. Nature of the test: Inhibition of BK-induced bronchospasm in the guinea pig. It counts as in vivo. To be noted: intratracheal dose which inhibited by 80% bronchial constriction for at least 210 min; for ED80: Cavia porcellus, inhaled or nasal, 3.5 h, read-out: it Dose. As for the experimental part:
The in vivo activity of the compounds of the present invention was evaluated as effectiveness in inhibiting BK-induced bronchospasm in the guinea pig (Tramontana, et al., J. Pharmacol. Exp. Therap. 296:1051-1057 (2001)), measuring the it dose (it=intratracheal administration) (in nmols/kg) which inhibited by 80% bronchial constriction for at least 210 min.

In test [1] the target is T1, B2 human receptor (Homo sapiens, UniProt P30411).
T1 construct: expressed in transfected cells; host or cells: CHO cells
T1 sequence (P30411 1-391): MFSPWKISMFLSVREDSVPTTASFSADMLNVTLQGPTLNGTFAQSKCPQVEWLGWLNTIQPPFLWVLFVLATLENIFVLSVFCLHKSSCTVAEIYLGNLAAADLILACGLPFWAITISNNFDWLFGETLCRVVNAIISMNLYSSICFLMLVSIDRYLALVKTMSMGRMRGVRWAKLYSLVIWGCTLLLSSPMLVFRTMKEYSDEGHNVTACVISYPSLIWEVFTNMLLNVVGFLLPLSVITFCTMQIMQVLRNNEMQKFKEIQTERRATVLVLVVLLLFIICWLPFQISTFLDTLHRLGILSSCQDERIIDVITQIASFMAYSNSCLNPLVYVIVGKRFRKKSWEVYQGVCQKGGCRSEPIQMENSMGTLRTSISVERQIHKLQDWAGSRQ
Nature of the test: cell-based.

Test [2] concerns the target T1, B2 human receptor. Nature of the test: Binding to the human B2 receptor expressed in CHO cells.
[3] abbreviates: antagonistic activity, bradykinin-induced inositol production, CHO cells transfected with B2 human receptor, read-out: pA2 (converted).
The mark [4] stands for this setting: human B2 receptor expressed in CHO cells, read-out: pKi (converted).
Setting [5] is: antagonistic activity, bradykinin-induced inositol production, CHO cells transfected with B2 human receptor.
The mark [6] stands for this setting: human B2 receptor expressed in CHO cells.

As for `Cc1ccc2cccc(OCc3c(Cl)ccc(S(=O)(=O)NC4(C(=O)N5CCN(C(=O)[C@@H](N)CCC[N+](C)(C)C)CC5)CCOCC4)c3Cl)c2n1` [Example 2, (4-(S)-Amino-5-(4-(4-(2,4-dichloro-3-(2-methyl-quinolin-8-yloxymethyl)-benzenesulfonylamino)tetrahydropyran-4-carbonyl)-piperazin-1-yl-)5-oxo-pentyl)-trimethylammonium chloride, hydrochloride], the ED80 in the test with BK-induced bronchospasm stood at 0.1 µmol/kg. For the same compound, the Kb on B2 human receptor [1] (setting [3]) is 0.2 nM. For the same compound, the Ki at B2 human receptor [2] (setting [4]) was 0.0631 nM.

As for `Cc1cc(C)c2cccc(OCc3c(Cl)ccc(S(=O)(=O)NC4(C(=O)N5CCN(C(=O)CCCC[N+](C)(C)C)CC5)CCOCC4)c3Cl)c2n1.O=C([O-])C(F)(F)F` [Example 3, [5-(4-{4-[2,4-Dichloro-3-(2,4-dimethyl-quinolin-8-yloxymethyl)-benzene-sulfonylamino]tetrahydropyran-4-carbonyl}piperazin-1-yl)-5-oxo-pentyl]-trimethyl-ammonium trifluoroacetate.], in the test with BK-induced bronchospasm, the “it Dose” value is listed as 100 nmols/kg. Besides, at B2 human receptor [1] (setting [5]), the pA2 worked out at 9.5. On B2 human receptor [2] (setting [6]), the pKi worked out at 10.1.

On to `Cc1cc(C)c2cccc(OCc3c(Cl)ccc(S(=O)(=O)NC4(C(=O)N5CCN(C(=O)[C@@H](N)CCC[N+](C)(C)C)CC5)CCCC4)c3Cl)c2n1` [Example 4, [4-(S)-Amino-5-(4-{1-[2,4-dichloro-3-(2,4-dimethyl-quinolin-8-yloxymethyl)-benzenesulfonylamino]cyclopentanecarbonyl}piperazin-1-yl)-5-oxo-pentyl]-trimethyl-ammonium chloride, dihydrochloride.], for which the ED80 in the test on BK-induced bronchospasm was determined as 0.1 µmol/kg. Besides, at B2 human receptor [1] (setting [3]), the Kb was 0.398 nM. In addition, the Ki on B2 human receptor [2] (setting [4]) was 0.0794 nM.

In the case of `Cc1cc(C)c2cccc(OCc3c(Cl)ccc(S(=O)(=O)NC4(C(=O)N5CCN(C(=O)[C@@H](N)CCC[N+](C)(C)C)CC5)CCOCC4)c3Cl)c2n1.Cl.Cl.[Cl-]` [Example 1, (4-(S)-amino-5-(4-{4-[2,4-dichloro-3-(2,4-dimethyl-quinolin-8-yloxymethyl)-benzenesulfonylamino]tetrahydropyran-4-carbonyl}piperazin-1-yl)-5-oxo-pentyl]trimethyl-ammonium chloride, dihydrochloride], in the test on BK-induced bronchospasm, the ED80 was determined as 0.03 µmol/kg. For the same compound, on B2 human receptor [1] (setting [5]), the pA2 stood at 10.3. This compound registered a pKi on B2 human receptor [2] (setting [6]) of 10.3.

Turning to `Cc1cc(C)c2cccc(OCc3c(Cl)ccc(S(=O)(=O)NC4(C(=O)N5CCN(C(=O)C(N)CCCCN(C)C)CC5)CCCC4)c3Cl)c2n1` (stereo not shown) [WO03103671 ex 59], the ED80 in the test on BK-induced bronchospasm stood at 0.3 µmol/kg. Also, on B2 human receptor [1] (setting [3]), the Kb is 1 nM. Further, the Ki on B2 human receptor [2] (setting [4]) is 1.58 nM.

Compound `Cc1cc(C)c2cccc(OCc3c(Cl)ccc(S(=O)(=O)NC4(C(=O)N5CCN(C(=O)C(CCCC[N+](C)(C)C)[N+](C)(C)C)CC5)CCCC4)c3Cl)c2n1` (stereo not shown) [WO03103671 ex 88] had a Kb at B2 human receptor [1] of 6.31 nM. Besides, the Ki at B2 human receptor [2] was 0.2 nM.

On to `Cc1cc(C)c2cccc(OCc3c(Cl)ccc(S(=O)(=O)NC4(C(=O)N5CCN(C(=O)C(N)CCCCN)CC5)CCCC4)c3Cl)c2n1` (stereo not shown) [WO03103671 ex 63], for which, in the test with BK-induced bronchospasm, the ED80 turned out to be 0.3 µmol/kg. On B2 human receptor [1] (setting [3]), the Kb is 1.26 nM. Moreover, the Ki at B2 human receptor [2] (setting [4]) is 0.794 nM.

For the compound `CCN=C(NCC)NCCCC(N)C(=O)N1CCN(C(=O)C2(NS(=O)(=O)c3ccc(Cl)c(COc4cccc5c(C)cc(C)nc45)c3Cl)CCCC2)CC1` (stereo not shown) [WO03103671 ex 44], the ED80 in the test on BK-induced bronchospasm stood at 0.3 µmol/kg. Further, the Kb at B2 human receptor [1] is 1 nM.

On to `Cc1ccc2cccc(OCc3c(Cl)ccc(S(=O)(=O)NC4(C(=O)N5CCN(C(=O)C(N)CCCCN(C)C)CC5)CCCC4)c3Cl)c2n1` (stereo not shown) [WO03103671 ex 57], for which the ED80 with BK-induced bronchospasm was found to be 0.3 µmol/kg. This compound also gave a Kb on B2 human receptor [1] of 5.01 nM. Further, the Ki at B2 human receptor [2] was 1.58 nM.

As for `Cc1ccc2cccc(OCc3c(Cl)ccc(S(=O)(=O)NC4(C(=O)N5CCN(C(=O)C(N)CCCNC(=N)N)CC5)CCCC4)c3Cl)c2n1` (stereo not shown) [WO03103671 ex 55], the ED80 with BK-induced bronchospasm was 0.3 µmol/kg. On B2 human receptor [1], the Kb was 3.98 nM. For the same compound, at B2 human receptor [2], the Ki is 2 nM.

For orientation: pA2 means a measure of antagonist potency on a negative log scale. Low values mean lower antagonist potency, high ones higher antagonist potency. What is called pKi is the Ki on a negative log10 scale, so that one unit is a factor of ten. Read a high pKi as a low Ki.
